Measurements from PMC5786431 (Journal of medicinal chemistry, 2017).

Legend:
[1] = Plasma concentration after oral administration; type: in vivo, mice; details: 100 mg/kg in 0.5% CMC suspension p.o.; 0.5 and 4 h; among 14b, 14g, 24a, 24c, 28a, 28c
[2] = intramuscular injection; cited from earlier work

plasma levels [1] | SMILES | lag to reach steady-state concentrations [2]
highest plasma levels | Cc1ccc(C(=O)c2sc3cc(O)ccc3c2Oc2ccc(/C=C/C(=O)O)cc2)c(C)c1 [Compound 28a, (E)-3-(4-((2-(2,4-dimethylbenzoyl)-6-hydroxybenzo[b]thiophen-3-yl)oxy)phenyl)acrylic acid] | –
highest plasma levels | Cc1cc(Cl)cc(C)c1C(=O)c1sc2cc(O)ccc2c1Oc1ccc(/C=C/C(=O)O)cc1 [Compound 28c, (E)-3-(4-((2-(4-chloro-2,6-dimethylbenzoyl)-6-hydroxybenzo[b]thiophen-3-yl)oxy)phenyl)acrylic acid] | –
highest plasma levels | Cc1cc(F)cc(C)c1C(=O)c1sc2cc(O)ccc2c1Oc1ccc(/C=C/C(=O)O)cc1 [Compound 24c] | –
– | C[C@]12CC[C@@H]3c4ccc(O)cc4C[C@@H](CCCCCCCCC[S+]([O-])CCCC(F)(F)C(F)(F)F)[C@H]3[C@@H]1CC[C@@H]2O (stereo partly shown) [Compound 1, fulvestrant] | 3–6 month
